{
  "source": "BindingDB's records for doi:10.1021/jm9508696",
  "about": "(Sandoz Research Institute, 1996)",
  "target": "T1, Dimer of Gag-Pol polyprotein [489-587] (Human immunodeficiency virus 1, UniProt P12497)",
  "T1 construct": "489-587",
  "assay": "Protease Inhibition Assay",
  "procedure": "Enzymatic activity was measured by following cleavage of the substrate H-Lys-Ala-Arg-Val-Leu-pNph-Glu-Ala-Nle-NH2. Products of the cleavage reaction were quantified by HPLC detection",
  "data": [
    {"compound": "CC(C)(C)OC(=O)N[C@@H](Cc1ccccc1)[C@@H](O)[C@@H](NCc1ccc(OCCO)cc1)C(=O)N[C@H]1c2ccccc2C[C@H]1O", "note": "[tert-butyl N-[(2S,3R,4R)-3-hydroxy-4-{[(1S,2R)-2-hydroxy-2,3-dihydro-1H-inden-1-yl]carbamoyl}-4-({[4-(2-hydroxyethoxy)phenyl]methyl}amino)-1-phenylbutan-2-yl]carbamate]", "values": [
      {"measurement": "Ki", "setting": "pH 6.25, 37 °C", "result": 80, "unit": "nM"}
    ]},
    {"compound": "CC(C)(C)OC(=O)N[C@@H](Cc1ccccc1)[C@@H](O)[C@@H](NCc1ccccc1)C(=O)NCc1ccccc1", "note": "[tert-butyl N-[(2S,3R,4R)-4-(benzylamino)-4-(benzylcarbamoyl)-3-hydroxy-1-phenylbutan-2-yl]carbamate]", "values": [
      {"measurement": "Ki", "setting": "pH 6.25, 37 °C", "result": 2500, "unit": "nM"}
    ]},
    {"compound": "COc1ccc(CN[C@@H](C(=O)N[C@H]2c3ccccc3C[C@H]2O)[C@H](O)[C@H](Cc2ccccc2)NC(=O)C(NC(=O)OCc2ccccc2)C(C)C)cc1", "note": "(stereo partly drawn) [benzyl N-(1-{[(2S,3R,4R)-3-hydroxy-4-{[(1S,2R)-2-hydroxy-2,3-dihydro-1H-inden-1-yl]carbamoyl}-4-{[(4-methoxyphenyl)methyl]amino}-1-phenylbutan-2-yl]carbamoyl}-2-methylpropyl)carbamate]", "values": [
      {"measurement": "Ki", "setting": "pH 6.25, 37 °C", "result": 8.1, "unit": "nM"}
    ]},
    {"compound": "CC(C)(C)OC(=O)N[C@@H](Cc1ccccc1)[C@@H](O)[C@@H](NCc1ccc(CNC(=O)Nc2ccccc2)cc1)C(=O)N[C@H]1c2ccccc2C[C@H]1O", "note": "[tert-butyl N-[(2S,3R,4R)-3-hydroxy-4-{[(1S,2R)-2-hydroxy-2,3-dihydro-1H-inden-1-yl]carbamoyl}-1-phenyl-4-{[(4-{[(phenylcarbamoyl)amino]methyl}phenyl)methyl]amino}butan-2-yl]carbamate]", "values": [
      {"measurement": "Ki", "setting": "pH 6.25, 37 °C", "result": 33, "unit": "nM"}
    ]},
    {"compound": "CC(C)(C)[C@H](NC(=O)OCc1ccccc1)C(=O)N[C@@H](Cc1ccccc1)[C@@H](O)[C@@H](NCc1ccc(CNC(=O)CCc2nc3ccccc3[nH]2)cc1)C(=O)N[C@H]1c2ccccc2C[C@H]1O", "note": "[benzyl N-[(1S)-1-{[(2S,3R,4R)-4-{[(4-{[3-(1H-1,3-benzodiazol-2-yl)propanamido]methyl}phenyl)methyl]amino}-3-hydroxy-4-{[(1S,2R)-2-hydroxy-2,3-dihydro-1H-inden-1-yl]carbamoyl}-1-phenylbutan-2-yl]carbamoyl}-2,2-dimethylpropyl]carbamate]", "values": [
      {"measurement": "Ki", "result": 4.1, "unit": "nM"}
    ]},
    {"compound": "COc1ccc(CN[C@@H](C(=O)N[C@H]2c3ccccc3C[C@H]2O)[C@H](O)[C@H](Cc2ccccc2)NC(=O)[C@@H](NC(=O)CSc2nncn2C)C(C)(C)C)cc1", "note": "[(2R,3R,4S)-4-[(2S)-3,3-dimethyl-2-{2-[(4-methyl-4H-1,2,4-triazol-3-yl)sulfanyl]acetamido}butanamido]-3-hydroxy-N-[(1S,2R)-2-hydroxy-2,3-dihydro-1H-inden-1-yl]-2-{[(4-methoxyphenyl)methyl]amino}-5-phenylpentanamide]", "values": [
      {"measurement": "Ki", "result": 5.8, "unit": "nM"}
    ]},
    {"compound": "COc1ccc(CN[C@@H](C(=O)N[C@H](C(=O)NCc2nc3ccccc3[nH]2)C(C)C)[C@H](O)[C@H](Cc2ccccc2)NC(=O)OC(C)(C)C)cc1", "note": "[tert-butyl N-[(2S,3R,4R)-4-{[(1S)-1-[(1H-1,3-benzodiazol-2-ylmethyl)carbamoyl]-2-methylpropyl]carbamoyl}-3-hydroxy-4-{[(4-methoxyphenyl)methyl]amino}-1-phenylbutan-2-yl]carbamate]", "values": [
      {"measurement": "Ki", "setting": "pH 6.25, 37 °C", "result": 7.7, "unit": "nM"}
    ]},
    {"compound": "CC(C)(C)OC(=O)N[C@@H](Cc1ccccc1)[C@@H](O)[C@@H](NCc1ccc(OCCO)cc1)C(=O)NCc1ccccc1", "note": "[tert-butyl N-[(2S,3R,4R)-4-(benzylcarbamoyl)-3-hydroxy-4-({[4-(2-hydroxyethoxy)phenyl]methyl}amino)-1-phenylbutan-2-yl]carbamate]", "values": [
      {"measurement": "Ki", "setting": "pH 6.25, 37 °C", "result": 1200, "unit": "nM"}
    ]},
    {"compound": "COc1ccc(CN[C@@H](C(=O)N[C@H]2c3ccccc3C[C@H]2O)[C@H](O)[C@H](Cc2ccccc2)NC(=O)[C@@H](NC(=O)CCc2ccccc2O)C(C)(C)C)cc1", "note": "[(2R,3R,4S)-3-hydroxy-N-[(1S,2R)-2-hydroxy-2,3-dihydro-1H-inden-1-yl]-4-[(2S)-2-[3-(2-hydroxyphenyl)propanamido]-3,3-dimethylbutanamido]-2-{[(4-methoxyphenyl)methyl]amino}-5-phenylpentanamide]", "values": [
      {"measurement": "Ki", "result": 13, "unit": "nM"}
    ]},
    {"compound": "COc1ccc(CN[C@@H](C(=O)N[C@H]2c3ccccc3C[C@H]2O)[C@H](O)[C@H](Cc2ccccc2)NC(=O)[C@@H](NC(=O)OC(C)(C)C)C(C)(C)C)cc1", "note": "[tert-butyl N-[(1S)-1-{[(2S,3R,4R)-3-hydroxy-4-{[(1S,2R)-2-hydroxy-2,3-dihydro-1H-inden-1-yl]carbamoyl}-4-{[(4-methoxyphenyl)methyl]amino}-1-phenylbutan-2-yl]carbamoyl}-2,2-dimethylpropyl]carbamate]", "values": [
      {"measurement": "Ki", "result": 210, "unit": "nM"}
    ]},
    {"compound": "COc1ccc(CN[C@@H](C(=O)N[C@H]2c3ccccc3C[C@H]2O)[C@H](O)[C@H](Cc2ccccc2)NC(=O)[C@@H](NC(=O)CSc2nnc(C)s2)C(C)(C)C)cc1", "note": "[(2R,3R,4S)-4-[(2S)-3,3-dimethyl-2-{2-[(5-methyl-1,3,4-thiadiazol-2-yl)sulfanyl]acetamido}butanamido]-3-hydroxy-N-[(1S,2R)-2-hydroxy-2,3-dihydro-1H-inden-1-yl]-2-{[(4-methoxyphenyl)methyl]amino}-5-phenylpentanamide]", "values": [
      {"measurement": "Ki", "result": 8, "unit": "nM"}
    ]},
    {"compound": "CCC(C)C(NC(=O)OCc1ccccc1)C(=O)N[C@@H](Cc1ccccc1)[C@@H](O)[C@@H](NCc1ccc(OC)cc1)C(=O)N[C@H]1c2ccccc2C[C@H]1O", "note": "(stereo partly drawn) [benzyl N-(1-{[(2S,3R,4R)-3-hydroxy-4-{[(1S,2R)-2-hydroxy-2,3-dihydro-1H-inden-1-yl]carbamoyl}-4-{[(4-methoxyphenyl)methyl]amino}-1-phenylbutan-2-yl]carbamoyl}-2-methylbutyl)carbamate]", "values": [
      {"measurement": "Ki", "setting": "pH 6.25, 37 °C", "result": 8.2, "unit": "nM"}
    ]},
    {"compound": "COc1ccc(CN[C@@H](C(=O)N[C@H]2c3ccccc3C[C@H]2O)[C@H](O)[C@H](Cc2ccccc2)NC(=O)[C@@H](NC(=O)CCc2ccc(OC)c(O)c2)C(C)(C)C)cc1", "note": "[(2R,3R,4S)-3-hydroxy-N-[(1S,2R)-2-hydroxy-2,3-dihydro-1H-inden-1-yl]-4-[(2S)-2-[3-(3-hydroxy-4-methoxyphenyl)propanamido]-3,3-dimethylbutanamido]-2-{[(4-methoxyphenyl)methyl]amino}-5-phenylpentanamide]", "values": [
      {"measurement": "Ki", "result": 7.7, "unit": "nM"}
    ]},
    {"compound": "COc1ccc(CN[C@@H](C(=O)N[C@H]2c3ccccc3C[C@H]2O)[C@H](O)[C@H](Cc2ccccc2)NC(=O)C(CC(=O)O)NC(=O)OCc2ccccc2)cc1", "note": "(stereo partly drawn) [3-{[(benzyloxy)carbonyl]amino}-3-{[(2S,3R,4R)-3-hydroxy-4-{[(1S,2R)-2-hydroxy-2,3-dihydro-1H-inden-1-yl]carbamoyl}-4-{[(4-methoxyphenyl)methyl]amino}-1-phenylbutan-2-yl]carbamoyl}propanoic acid]", "values": [
      {"measurement": "Ki", "setting": "pH 6.25, 37 °C", "result": 22, "unit": "nM"}
    ]},
    {"compound": "COc1ccc(CN[C@@H](C(=O)N[C@H]2c3ccccc3C[C@H]2O)[C@H](O)[C@H](Cc2ccccc2)NC(=O)[C@@H](NC(=O)/C=C/c2ccc(OC)c(O)c2)C(C)(C)C)cc1", "note": "[(2R,3R,4S)-3-hydroxy-N-[(1S,2R)-2-hydroxy-2,3-dihydro-1H-inden-1-yl]-4-[(2S)-2-[(2E)-3-(3-hydroxy-4-methoxyphenyl)prop-2-enamido]-3,3-dimethylbutanamido]-2-{[(4-methoxyphenyl)methyl]amino}-5-phenylpentanamide]", "values": [
      {"measurement": "Ki", "result": 5.8, "unit": "nM"}
    ]},
    {"compound": "CC(C)(C)OC(=O)N[C@@H](Cc1ccccc1)[C@@H](O)[C@@H](NCc1ccc(CNC(=O)CCc2nc3ccccc3[nH]2)cc1)C(=O)NCc1ccccc1", "note": "[tert-butyl N-[(2S,3R,4R)-4-{[(4-{[3-(1H-1,3-benzodiazol-2-yl)propanamido]methyl}phenyl)methyl]amino}-4-(benzylcarbamoyl)-3-hydroxy-1-phenylbutan-2-yl]carbamate]", "values": [
      {"measurement": "Ki", "setting": "pH 6.25, 37 °C", "result": 680, "unit": "nM"}
    ]},
    {"compound": "COc1ccc(CN[C@@H](C(=O)N[C@H]2c3ccccc3C[C@H]2O)[C@H](O)[C@H](Cc2ccccc2)NC(=O)C(CC(N)=O)NC(=O)OCc2ccccc2)cc1", "note": "(stereo partly drawn) [benzyl N-(2-carbamoyl-1-{[(2S,3R,4R)-3-hydroxy-4-{[(1S,2R)-2-hydroxy-2,3-dihydro-1H-inden-1-yl]carbamoyl}-4-{[(4-methoxyphenyl)methyl]amino}-1-phenylbutan-2-yl]carbamoyl}ethyl)carbamate]", "values": [
      {"measurement": "Ki", "setting": "pH 6.25, 37 °C", "result": 15, "unit": "nM"}
    ]},
    {"compound": "CCOc1ccc(CN[C@@H](C(=O)N[C@H]2c3ccccc3C[C@H]2O)[C@H](O)[C@H](Cc2ccccc2)NC(=O)OC(C)(C)C)cc1", "note": "[tert-butyl N-[(2S,3R,4R)-4-{[(4-ethoxyphenyl)methyl]amino}-3-hydroxy-4-{[(1S,2R)-2-hydroxy-2,3-dihydro-1H-inden-1-yl]carbamoyl}-1-phenylbutan-2-yl]carbamate]", "values": [
      {"measurement": "Ki", "setting": "pH 6.25, 37 °C", "result": 92, "unit": "nM"}
    ]},
    {"compound": "COc1ccc(CN[C@@H](C(=O)N[C@H]2c3ccccc3C[C@H]2O)[C@H](O)[C@H](Cc2ccccc2)NC(=O)[C@@H](NC(=O)/C=C/c2ccc(OC)cc2O)C(C)(C)C)cc1", "note": "[(2R,3R,4S)-3-hydroxy-N-[(1S,2R)-2-hydroxy-2,3-dihydro-1H-inden-1-yl]-4-[(2S)-2-[(2E)-3-(2-hydroxy-4-methoxyphenyl)prop-2-enamido]-3,3-dimethylbutanamido]-2-{[(4-methoxyphenyl)methyl]amino}-5-phenylpentanamide]", "values": [
      {"measurement": "Ki", "result": 18, "unit": "nM"}
    ]},
    {"compound": "CC(C)(C)OC(=O)N[C@@H](Cc1ccccc1)[C@@H](O)[C@@H](NCc1ccc(OCCN2CCOCC2)cc1)C(=O)N[C@H]1c2ccccc2C[C@H]1O", "note": "[tert-butyl N-[(2S,3R,4R)-3-hydroxy-4-{[(1S,2R)-2-hydroxy-2,3-dihydro-1H-inden-1-yl]carbamoyl}-4-[({4-[2-(morpholin-4-yl)ethoxy]phenyl}methyl)amino]-1-phenylbutan-2-yl]carbamate]", "values": [
      {"measurement": "Ki", "setting": "pH 6.25, 37 °C", "result": 130, "unit": "nM"}
    ]},
    {"compound": "COc1ccc(CN[C@@H](C(=O)N[C@H]2c3ccccc3C[C@H]2O)[C@H](O)[C@H](Cc2ccccc2)NC(=O)OC(C)(C)C)cc1", "note": "[(2R,3S,4S,1 S,2 R)-4-[[(1,1-Dimethylethoxy0carbonyl]amino]-3-hydroxy-2-[(4-methoxybenzyl)amino]-5-phenylpentan(2-hydroxy-1 indanyl)amide]", "values": [
      {"measurement": "Ki", "setting": "pH 6.25, 37 °C", "result": 65, "unit": "nM"}
    ]}
  ]
}
